Data on 29 molecules can be found in patent US8513248B2, “5,6,7,8-tetrahydroimidazo[1,2-A]pyrazine derivatives as P2X7 modulators” (Glaxo Group Limited, priority 2009, dated 2013).

Structures can show the parent of a compound that is named as a salt.

The target in this assay is T1, human recombinant P2X7 receptors (Homo sapiens, UniProt Q99572).
T1 construct: expressed in transfected cells
T1 sequence (Q99572 1-595): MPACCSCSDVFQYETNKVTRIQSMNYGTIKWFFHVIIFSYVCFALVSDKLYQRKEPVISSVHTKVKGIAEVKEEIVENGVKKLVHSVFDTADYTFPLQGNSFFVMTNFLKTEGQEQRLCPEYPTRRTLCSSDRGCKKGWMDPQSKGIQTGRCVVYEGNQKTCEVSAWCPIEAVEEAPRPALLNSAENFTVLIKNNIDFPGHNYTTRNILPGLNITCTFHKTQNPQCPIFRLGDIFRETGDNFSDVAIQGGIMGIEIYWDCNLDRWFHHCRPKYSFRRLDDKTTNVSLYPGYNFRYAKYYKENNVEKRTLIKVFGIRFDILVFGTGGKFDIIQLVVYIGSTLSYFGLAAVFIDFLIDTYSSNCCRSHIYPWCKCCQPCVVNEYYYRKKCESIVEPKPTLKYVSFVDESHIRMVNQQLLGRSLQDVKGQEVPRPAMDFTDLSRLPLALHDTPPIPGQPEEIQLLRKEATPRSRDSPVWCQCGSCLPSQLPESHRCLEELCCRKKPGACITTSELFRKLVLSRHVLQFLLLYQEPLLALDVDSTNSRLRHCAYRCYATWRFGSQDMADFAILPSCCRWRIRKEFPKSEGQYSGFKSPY
The experiment in a line: Ethidium Accumulation Assay 1. Type of assay: cell-based. Conditions: HEK293 cells stably expressing human recombinant P2X7; 1 mM ATP; ethidium 100 μM; read-out: Assay 1 (antagonist pIC50 for blocking ATP responses, ethidium accumulation) (converted). The protocol:
Studies were performed using NaCl assay buffer of the following composition: 140 mM NaCl, 10 mM HEPES [4-(2-hydroxyethyl)-1-piperazine-1-ethanesulfonic acid], 5 mM N-methyl-D-glucamine, 5.6 mM KCl, 10 mM D-glucose, 0.5 mM CaCl2 (pH 7.4).
Human Embryonic Kidney (HEK) 293 cells, stably expressing human recombinant P2X7 receptors, were grown in poly-D-lysine pretreated 96 well plates for 18-24 hours. […] The cells were washed twice with 350 μl of the assay buffer, before addition of 50 μl of the assay buffer containing the putative P2X7 receptor antagonist compound. (A small amount of dimethyl sulfoxide, for initially dissolving the compound, is optionally used and present in this […] test compound sample.) The cells were then incubated at room temperature (19-21° C.) for 30 min before addition of ATP and ethidium (100 μM final assay concentration). The ATP concentration was chosen to be close to the EC80 for the receptor type and was 1 mM for studies on the human P2X7 receptor. Incubations were continued for 8 or 16 min and were terminated by addition of 25 μl of 1.3M sucrose containing 4 mM of the P2X7 receptor antagonist Reactive Black 5 (Aldrich). […] Antagonist pIC50 values for blocking ATP responses were determined using iterative curve fitting techniques.
As to `O=C(c1ccc(Cl)cc1Cl)N1CCn2cc(C(F)(F)F)nc2C1` [Example 3, 7-[(2,4-Dichlorophenyl)carbonyl]-2-(trifluoromethyl)-5,6,7,8-tetrahydroimidazo[1,2-a]pyrazine], the IC50 was under 1000 nM.
`O=C(c1cccc(C(F)(F)F)c1Cl)N1CCn2c(-c3ccccc3)cnc2C1` [Example 4, 7-{[2-chloro-3-(trifluoromethyl)phenyl]carbonyl}-3-phenyl-5,6,7,8-tetrahydroimidazo[1,2-a]pyrazine hydrochloride]: the IC50 is under 10 nM.
With `O=C(c1ccc(Cl)cc1Cl)N1CCn2c(-c3ccccc3)cnc2C1` [Example 5, 7-[(2,4-dichlorophenyl)carbonyl]-3-phenyl-5,6,7,8-tetrahydroimidazo[1,2-a]pyrazine hydrochloride] the figure was under 100 nM; with `CCc1cn2c(n1)CN(C(=O)c1cccc(C(F)(F)F)c1Cl)CC2` [Example 6, 7-{[2-chloro-3-(trifluoromethyl)phenyl]carbonyl}-2-ethyl-5,6,7,8-tetrahydroimidazo[1,2-a]pyrazine], under 100 nM.
Turning to `CCc1cn2c(n1)CN(C(=O)c1ccc(Cl)cc1Cl)CC2` [Example 7, 7-[(2,4-dichlorophenyl)carbonyl]-2-ethyl-5,6,7,8-tetrahydroimidazo[1,2-a]pyrazine], the IC50 was under 1000 nM.
`O=C(c1ccccc1Cl)N1CCn2c(-c3ccccc3)cnc2C1` [Example 8, 7-[(2-chlorophenyl)carbonyl]-3-phenyl-5,6,7,8-tetrahydroimidazo[1,2-a]pyrazine hydrochloride]: the IC50 was under 100 nM.
The same measure for `O=C(c1cccc(Cl)c1Cl)N1CCn2c(-c3ccccc3)cnc2C1` [Example 9, 7-[(2,3-Dichlorophenyl)carbonyl]-3-phenyl-5,6,7,8-tetrahydroimidazo[1,2-a]pyrazine hydrochloride]: under 10 nM; for `O=C(c1ccc(F)cc1Cl)N1CCn2c(-c3ccccc3)cnc2C1` [Example 10, 7-[(2-chloro-4-fluorophenyl)carbonyl]-3-phenyl-5,6,7,8-tetrahydroimidazo[1,2-a]pyrazine hydrochloride]: under 100 nM.
As to `Cc1cn2c(n1)CN(C(=O)c1cccc(C(F)(F)F)c1Cl)CC2` [Example 11, 7-{[2-chloro-3-(trifluoromethyl)phenyl]carbonyl}-2-methyl-5,6,7,8-tetrahydroimidazo[1,2-a]pyrazine], the IC50 is under 501 nM.
With `Cc1cn2c(n1)CN(C(=O)c1cccc(Cl)c1Cl)CC2` [Example 12, 7-[(2,3-dichlorophenyl)carbonyl]-2-methyl-5,6,7,8-tetrahydroimidazo[1,2-a]pyrazine] the figure was under 501 nM.
With `CC(C)(C)c1cn2c(n1)CN(C(=O)c1cccc(C(F)(F)F)c1Cl)CC2` [Example 13, 7-{[2-chloro-3-(trifluoromethyl)phenyl]carbonyl}-2-(1,1-dimethylethyl)-5,6,7,8-tetrahydroimidazo[1,2-a]pyrazine hydrochloride] the figure was under 1000 nM.
In the case of `O=C(c1cccc(C(F)(F)F)c1Cl)N1CCn2cc(-c3ccccc3)nc2C1` [Example 14, 7-{[2-chloro-3-(trifluoromethyl)phenyl]carbonyl}-2-phenyl-5,6,7,8-tetrahydroimidazo[1,2-a]pyrazine hydrochloride], the IC50 was under 501 nM.
The same measure for `O=C(c1cccc(Cl)c1Cl)N1CCn2cc(-c3ccccc3)nc2C1` [Example 15, 7-[(2,3-dichlorophenyl)carbonyl]-2-phenyl-5,6,7,8-tetrahydroimidazo[1,2-a]pyrazine hydrochloride]: under 1000 nM; for `O=C(c1cccc(C(F)(F)F)c1Cl)N1CCn2c(-c3ccccn3)cnc2C1` [Example 16, a hydrochloride (n•HCl) salt of 7-{[2-chloro-3-(trifluoromethyl)phenyl]carbonyl}-3-(2-pyridinyl)-5,6,7,8-tetrahydroimidazo[1,2-a]pyrazine]: under 10 nM; for `O=C(c1c(Cl)cc(Cl)cc1Cl)N1CCn2c(-c3ccccc3)cnc2C1` [Example 17, 3-Phenyl-7-[(2,4,6-trichlorophenyl)carbonyl]-5,6,7,8-tetrahydroimidazo[1,2-a]pyrazine hydrochloride]: under 100 nM.
In the case of `O=C(c1cccc(C(F)(F)F)c1Cl)N1CCn2c(Br)cnc2C1` [Example 18, 3-Bromo-7-{[2-chloro-3-(trifluoromethyl)phenyl]carbonyl}-5,6,7,8-tetrahydroimidazo[1,2-a]pyrazine hydrochloride], the IC50 was under 10 nM.
The same measure for `O=C(c1cccc(C(F)(F)F)c1Cl)N1CCn2c(nc(C(F)(F)F)c2Br)C1` [Example 19, 3-Bromo-7-{[2-chloro-3-(trifluoromethyl)phenyl]carbonyl}-2-(trifluoromethyl)-5,6,7,8-tetrahydroimidazo[1,2-a]pyrazine]: under 10 nM; for `O=C(c1cccc(C(F)(F)F)c1Cl)N1CCn2c(nc(I)c2I)C1` [Example 20, 7-{[2-chloro-3-(trifluoromethyl)phenyl]carbonyl}-2,3-diiodo-5,6,7,8-tetrahydroimidazo[1,2-a]pyrazine]: under 10 nM; for `O=C(c1cccc(C(F)(F)F)c1Cl)N1CCn2c(I)cnc2C1` [Example 21, 7-{[2-chloro-3-(trifluoromethyl)phenyl]carbonyl}-3-iodo-5,6,7,8-tetrahydroimidazo[1,2-a]pyrazine]: under 10 nM.
With `O=C(c1cccc(C(F)(F)F)c1Cl)N1CCn2c(-c3ccc(F)cc3)cnc2C1` [Example 22, 7-{[2-Chloro-3-(trifluoromethyl)phenyl]carbonyl}-3-(4-fluorophenyl)-5,6,7,8-tetrahydroimidazo[1,2-a]pyrazine hydrochloride] the figure was under 100 nM.
With `O=C(c1cccc(C(F)(F)F)c1Cl)N1CCn2c(-c3cccnc3)cnc2C1` [Example 23, a hydrochloride salt (n•HCl) of 7-{[2-chloro-3-(trifluoromethyl)phenyl]carbonyl}-3-(3-pyridinyl)-5,6,7,8-tetrahydroimidazo[1,2-a]pyrazine] the figure was under 10 nM; with `O=C(c1cccc(C(F)(F)F)c1Cl)N1CCn2c(-c3cccc(C(F)(F)F)c3Cl)cnc2C1` [Example 24, 3-[2-chloro-3-(trifluoromethyl)phenyl]-7-{[2-chloro-3-(trifluoromethyl)phenyl]carbonyl}-5,6,7,8-tetrahydroimidazo[1,2-a]pyrazine hydrochloride], under 1000 nM.
As for `O=C(c1cccc(C(F)(F)F)c1Cl)N1CCn2c(-c3ccc(Cl)cc3)cnc2C1` [Example 25, 3-(4-chlorophenyl)-7-{[2-chloro-3-(trifluoromethyl)phenyl]carbonyl}-5,6,7,8-tetrahydroimidazo[1,2-a]pyrazine hydrochloride], the IC50 was under 501 nM.
`O=C(c1cccc(C(F)(F)F)c1Cl)N1CCn2c(nc(C(F)(F)F)c2-c2ccccc2)C1` [Example 26, 7-{[2-Chloro-3-(trifluoromethyl)phenyl]carbonyl}-3-phenyl-2-(trifluoromethyl)-5,6,7,8-tetrahydroimidazo[1,2-a]pyrazine]: the IC50 was under 100 nM.
Consider `Cc1ccccc1-c1cnc2n1CCN(C(=O)c1cccc(C(F)(F)F)c1Cl)C2` [Example 28, 7-{[2-Chloro-3-(trifluoromethyl)phenyl]carbonyl}-3-(2-methylphenyl)-5,6,7,8-tetrahydroimidazo[1,2-a]pyrazine hydrochloride], for which the IC50 is under 100 nM.
For `O=C(c1ccc(Cl)cc1Cl)N1CCn2c(nc(Cl)c2Cl)C1` [Example 29, 2,3-dichloro-7-[(2,4-dichlorophenyl)carbonyl]-5,6,7,8-tetrahydroimidazo[1,2-a]pyrazine], the IC50 was under 100 nM.
The same measure for `O=C(c1ccc(F)cc1Cl)N1CCn2c(Br)cnc2C1` [Example 30, 3-Bromo-7-[(2-chloro-4-fluorophenyl)carbonyl]-5,6,7,8-tetrahydroimidazo[1,2-a]pyrazine]: under 501 nM.
The same measure for `O=C(c1cccc(C(F)(F)F)c1Cl)N1CCn2c(-c3ccc(F)cn3)cnc2C1` [Example 31, 7-{[2-Chloro-3-(trifluoromethyl)phenyl]carbonyl}-3-(5-fluoro-2-pyridinyl)-5,6,7,8-tetrahydroimidazo[1,2-a]pyrazine]: under 10 nM; for `O=C(c1ccc(F)cc1Cl)N1CCn2c(nc(C(F)(F)F)c2Br)C1` [Example 32, 3-Bromo-7-[(2-chloro-4-fluorophenyl)carbonyl]-2-(trifluoromethyl)-5,6,7,8-tetrahydroimidazo[1,2-a]pyrazine]: under 100 nM.
